Results published in ChEMBL document CHEMBL1201862, “PubChem BioAssay data set” (2004).
Calls of active or inactive are those of the source. Rule as the data show it, for most assays here: actives have a measured EC50 and inactives only a lower limit.

Legend:
cells [1] = format: functional, cell-based
cells [2] = format: functional, cell-based; remark: listed apart in the source
Protein RecA = target: T1, Protein RecA (Mycobacterium tuberculosis, UniProt P9WHJ3); test: Fluorescence Cell-Free Homogeneous Dose Retest to Identify Inhibitors of RecA-Intein Splicing Activity. [Related pubchem assays (depositor defined):AID2097, AID2223, AID489010, AID492950]; format: functional
T1 sequence (P9WHJ3 whole entry): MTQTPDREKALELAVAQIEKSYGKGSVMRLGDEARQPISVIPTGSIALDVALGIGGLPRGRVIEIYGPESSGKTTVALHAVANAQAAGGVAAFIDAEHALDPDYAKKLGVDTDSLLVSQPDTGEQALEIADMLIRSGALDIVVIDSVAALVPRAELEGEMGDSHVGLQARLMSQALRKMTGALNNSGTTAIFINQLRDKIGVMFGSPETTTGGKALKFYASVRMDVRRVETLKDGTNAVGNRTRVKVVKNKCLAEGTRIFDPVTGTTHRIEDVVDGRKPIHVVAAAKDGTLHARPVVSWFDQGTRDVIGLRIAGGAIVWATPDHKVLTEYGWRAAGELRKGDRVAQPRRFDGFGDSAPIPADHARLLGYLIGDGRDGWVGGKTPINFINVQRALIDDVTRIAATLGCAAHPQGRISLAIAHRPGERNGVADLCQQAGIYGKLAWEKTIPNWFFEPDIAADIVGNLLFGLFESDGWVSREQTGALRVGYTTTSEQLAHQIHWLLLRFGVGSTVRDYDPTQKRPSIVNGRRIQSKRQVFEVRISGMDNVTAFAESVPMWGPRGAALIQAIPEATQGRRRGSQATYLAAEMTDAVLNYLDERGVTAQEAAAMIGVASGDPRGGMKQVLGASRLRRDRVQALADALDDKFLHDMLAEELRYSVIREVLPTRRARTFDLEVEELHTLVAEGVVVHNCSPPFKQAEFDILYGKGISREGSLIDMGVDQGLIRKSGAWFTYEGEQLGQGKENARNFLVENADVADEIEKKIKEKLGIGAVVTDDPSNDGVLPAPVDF

[3] = target: T2, Replicative DNA helicase DnaB (Mycobacterium tuberculosis, UniProt P9WMR3); test: DnaB intein splicing inhibitors, dose response, biochemical, cell-free fluorescence (AID 449749); format: functional
T2 sequence (P9WMR3 whole entry): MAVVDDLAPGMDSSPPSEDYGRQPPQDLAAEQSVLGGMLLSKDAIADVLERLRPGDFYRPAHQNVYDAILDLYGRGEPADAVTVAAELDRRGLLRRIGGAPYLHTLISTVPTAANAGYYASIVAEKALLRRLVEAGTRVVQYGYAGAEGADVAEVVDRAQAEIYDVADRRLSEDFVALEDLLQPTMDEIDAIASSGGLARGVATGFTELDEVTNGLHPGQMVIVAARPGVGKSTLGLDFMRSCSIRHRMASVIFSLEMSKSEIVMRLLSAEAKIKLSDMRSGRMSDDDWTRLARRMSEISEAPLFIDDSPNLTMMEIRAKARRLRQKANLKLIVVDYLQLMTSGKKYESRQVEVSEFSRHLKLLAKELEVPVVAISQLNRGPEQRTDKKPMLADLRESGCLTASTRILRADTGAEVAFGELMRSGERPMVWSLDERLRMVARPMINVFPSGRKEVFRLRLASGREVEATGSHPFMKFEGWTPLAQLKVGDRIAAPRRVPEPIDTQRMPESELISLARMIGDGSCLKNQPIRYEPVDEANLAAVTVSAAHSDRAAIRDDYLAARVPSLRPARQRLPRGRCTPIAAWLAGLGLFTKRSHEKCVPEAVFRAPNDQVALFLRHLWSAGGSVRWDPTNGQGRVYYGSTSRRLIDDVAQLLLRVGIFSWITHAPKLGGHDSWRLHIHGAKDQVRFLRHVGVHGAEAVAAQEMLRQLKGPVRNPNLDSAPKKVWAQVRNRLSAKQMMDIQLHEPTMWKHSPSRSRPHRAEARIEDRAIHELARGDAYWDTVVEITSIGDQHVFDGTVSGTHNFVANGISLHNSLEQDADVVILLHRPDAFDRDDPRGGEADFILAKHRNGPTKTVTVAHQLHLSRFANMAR

[4] = target: T3, Rac GTPase-activating protein 1 (Homo sapiens, UniProt Q9H0H5); test: blockers of MgcRacGAP-driven Rac1 GTP hydrolysis – biochemical, ADP Hunter fluorescence, primary and confirmatory, confirmation (AID 624330); format: functional
T3 sequence (Q9H0H5 whole entry): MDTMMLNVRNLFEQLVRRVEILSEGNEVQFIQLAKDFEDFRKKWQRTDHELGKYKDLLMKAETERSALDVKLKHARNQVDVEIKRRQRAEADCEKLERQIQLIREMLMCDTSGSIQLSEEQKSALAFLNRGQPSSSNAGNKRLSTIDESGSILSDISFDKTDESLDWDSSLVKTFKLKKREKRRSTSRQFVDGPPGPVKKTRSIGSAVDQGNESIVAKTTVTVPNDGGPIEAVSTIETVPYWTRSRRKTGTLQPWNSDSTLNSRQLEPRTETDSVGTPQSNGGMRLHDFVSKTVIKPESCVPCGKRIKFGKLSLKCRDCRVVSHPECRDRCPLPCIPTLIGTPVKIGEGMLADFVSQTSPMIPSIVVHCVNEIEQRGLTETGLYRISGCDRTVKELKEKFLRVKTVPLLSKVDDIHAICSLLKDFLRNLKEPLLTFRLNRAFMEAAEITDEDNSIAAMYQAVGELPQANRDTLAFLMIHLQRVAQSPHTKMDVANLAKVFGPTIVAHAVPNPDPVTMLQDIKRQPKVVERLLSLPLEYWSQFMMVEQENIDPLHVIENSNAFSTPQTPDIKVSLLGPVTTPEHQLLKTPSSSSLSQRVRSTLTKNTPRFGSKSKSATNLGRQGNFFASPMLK

INS1 = test: INS-1E survival protection against cytokine death – cell-based, luminescence, retest, dose response (AID 449756); format: functional; details: Rattus norvegicus;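 also: cell death triggered by IL-1 beta plus TNF-alpha plus IFN-gamma mixture; protective hits raise ATP signal compared with cytokine alone wells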
H4 = test: Luminescence Cell-Based Dose Response HTS to Identify Activators of 5'UTR Stem-Loop Driven Prion Protein mRNA Translation in H4 Neuroglioblastoma Cells. [Related pubchem assays: 1829 (Project Summary), 1814 (Primary HTS)]; format: functional; details: Homo sapiens
[5] = Luminescence Cell-Based Dose Response HTS to Identify Activators of Luciferase Translation or Activity in H4 […] Cells. [Related pubchem assays: 1829 (Project Summary), 1814 (Primary HTS)]; format: functional
[6] = Luminescence Cell-Based Dose Confirmation HTS to Identify Activators of 5'UTR Stem-Loop Driven Alpha-Synuclein mRNA Translation in H4 Neuroglioblastoma Cells. [Related pubchem assays: 1829 (Project Summary), 1814 (Primary HTS)]; format: functional
[7] = Trypanosoma cruzi growth suppression in host cells – NIH3T3 host cells, beta-gal luminescence, confirmation (AID 2044); format: functional, cell-based;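 also: intracellular parasites grown in NIH/3T3 mouse fibroblasts as host cells; luminescent beta-galactosidase reporter signal from transgenic T. cruzi replicating inside host cells; inhibitors lower the luminescence signal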
[8] = NIH3T3 cell viability loss – ATP luminescence, mouse fibroblasts, counter-screen, dose response (AID 2010); format: functional, cell-based;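 also: cells exposed to compound for about 90 hours before reading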
[9] = target: T4, Heat shock factor protein 1 (Mus musculus, UniProt P38532); test: enhancement of HSF1-driven luciferase signal – cell-based, NIH3T3, luminescence, dose retest, confirmation (AID 435004); format: functional;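 also: stress induced by proteasome inhibitor MG132 added 30 min after compound; luciferase reporter driven by HSF1 response element in NIH3T3 cells; actives raise luminescence as potentiators of the MG132 stress response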
T4 sequence (P38532 whole entry): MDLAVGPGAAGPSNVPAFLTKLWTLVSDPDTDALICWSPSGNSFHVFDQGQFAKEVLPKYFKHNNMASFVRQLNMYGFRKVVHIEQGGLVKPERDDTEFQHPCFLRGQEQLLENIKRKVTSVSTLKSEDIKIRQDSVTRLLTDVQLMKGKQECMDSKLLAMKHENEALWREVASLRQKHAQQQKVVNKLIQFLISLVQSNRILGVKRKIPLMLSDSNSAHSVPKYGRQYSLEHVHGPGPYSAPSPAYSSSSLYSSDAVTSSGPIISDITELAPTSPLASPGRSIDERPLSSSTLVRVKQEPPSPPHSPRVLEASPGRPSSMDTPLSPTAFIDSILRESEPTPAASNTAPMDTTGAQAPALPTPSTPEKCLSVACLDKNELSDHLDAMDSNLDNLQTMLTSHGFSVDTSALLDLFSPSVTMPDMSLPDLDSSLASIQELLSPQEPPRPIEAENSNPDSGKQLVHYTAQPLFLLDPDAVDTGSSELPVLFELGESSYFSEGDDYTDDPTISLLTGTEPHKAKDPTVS

With `Cc1ccc(OC(C)C(=O)N2CC(=O)Nc3ccccc32)cc1` (stereo unspecified) the EC50 (cells [1]) was > 350 µM (not active) and the EC50 (cells [2]) was > 350 µM (not active).

For `COC(=O)COc1c(Cl)cc(C(c2c(C)n[nH]c2O)c2c(C)n[nH]c2O)cc1OC`, the EC50 (Protein RecA) was 0.158 µM (active) and the AC50 [3] was 0.47 µM (active).

With `Cc1ccc(-n2cc(CN3CCC(CO)(Cc4ccccc4)CC3)cn2)cc1` the EC50 (cells [1]) was > 350 µM (not active) and the EC50 (cells [2]) was > 350 µM (not active).

In the case of `Cc1cccc(Nc2c(-c3ccc(O)cc3)nc3ncccn23)c1`, the IC50 [4] is reported as 32.1 µM (active).

In the case of `COc1ccc(NC2CCCN(C(=O)c3ccc4[nH]c(C)c(C)c4c3)C2)cc1` (stereo unspecified), the IC50 [4] is reported as 81.4 µM (active).

With `Oc1ccc(-c2cn3c(n2)SCC3)cc1` the IC50 [4] was 18.9 µM (active).

With `C(/CCc1ccccc1)=N\Nc1nc2ccccc2[nH]1` the EC50 (cells [1]) was 92.2 µM (active), the AC50 (INS1) was 5.2 µM (active) and the EC50 (cells [2]) was 35.8 µM (active).

In the case of `CCCCCn1c(=O)c(C(=O)NCc2ccccc2Cl)c(O)c2ccccc21`, the AC50 (INS1) is reported as 8.04 µM (active).

For `Cc1ccc(COC(=O)Cc2coc3cc(O)ccc23)cc1`, the IC50 [4] was 30.1 µM (active).

With `Cc1ccc(S(=O)(=O)Nc2cc(-c3ccc(Cl)cc3)nn2C)cc1` the EC50 (cells [1]) was > 350 µM (not active) and the EC50 (cells [2]) was > 350 µM (not active).

For `Cc1[nH]nc(O)c1C(c1ccc(Cl)cc1)c1c(O)n[nH]c1C`, the EC50 (Protein RecA) was 0.461 µM (active) and the AC50 [3] was 1.27 µM (active).

With `COc1cc(C2C(C#N)=C(N)Oc3[nH]nc(-c4cccnc4)c32)ccc1OCC(N)=O` (stereo unspecified) the EC50 (Protein RecA) was 3.16 µM (active) and the AC50 [3] was 48.5 µM (active).

In the case of `CCN1CCN(C(S)=NCC2CCCO2)CC1` (stereo unspecified), the IC50 [4] is reported as 186 µM (active).

In the case of `CCCS(=O)(=O)N1CCN(Cc2ccco2)CC1`, the IC50 [4] is reported as 130 µM (active).

With `Cc1cccc(-n2ccnc2SCC(=O)Nc2nccs2)c1` the EC50 (H4) was > 120 µM (not active), the EC50 [5] was 23.4 µM (active) and the EC50 [6] was 6.34 µM (active).

For `CCSc1cc(C)nc2c(-c3ccccc3)cnn12`, the EC50 (cells [1]) was > 350 µM (not active) and the EC50 (cells [2]) was 23.1 µM (active).

For `Cc1ccc(OCCCCNC(C)(C)C)c([N+](=O)[O-])c1`, the IC50 [4] was 141 µM (active).

For `COc1ccnc(N=CNOCc2ccc(C)cc2)c1C#N`, the EC50 (H4) was 55.5 µM (active), the EC50 [5] was 12.5 µM (active) and the EC50 [6] was 14.7 µM (active).

In the case of `O=C(CSc1nnnn1C1CC1)N1CCN(c2ccc(O)cc2)CC1`, the IC50 [4] is reported as 30.8 µM (active).

With `COc1cc(NC(=O)CN2C(=O)c3ccccc3Sc3ccc(C(=O)N4CCOCC4)cc32)cc(OC)c1OC` the EC50 (cells [1]) was > 350 µM (not active) and the EC50 (cells [2]) was > 350 µM (not active).

With `Cc1occc1C(=O)N/N=C/c1c(O)ccc2ccccc12` the EC50 (cells [1]) was 69 µM (active), the AC50 (INS1) was 1.25 µM (active) and the EC50 (cells [2]) was 9.8 µM (active).

With `CCOC(=O)/C(C#N)=C1/C=CN(c2ccc(C)cc2)C=N1` the EC50 (H4) was 14.8 µM (active), the EC50 [5] was 14.9 µM (active) and the EC50 [6] was > 120 µM (not active).

In the case of `Cc1nnc2ccc(Oc3ccc(-c4ccccc4)cc3)nn12`, the AC50 (INS1) is reported as 6.58 µM (active) and the IC50 [4] is reported as 99.4 µM (active).

In the case of `O=C(c1c[nH]c(C(=O)C(Cl)(Cl)Cl)c1)c1ccc(F)cc1F`, the EC50 (Protein RecA) is reported as 7.8 µM (active) and the AC50 [3] is reported as 21.2 µM (active).

With `CCc1ccc2nc(O)c(CN(Cc3ccccc3OC)C(=O)Nc3ccccc3OC)cc2c1` the EC50 (H4) was 111 µM (active), the EC50 [7] was 3 µM (active) and the EC50 [8] was > 60 µM (not active). For the same compound, the EC50 [5] was > 120 µM (not active) and the EC50 [6] was 111 µM (active).

For `O=[N+]([O-])c1cccc(/C=N/n2cnnc2)c1`, the AC50 (INS1) was > 260 µM (inactive).

For `O=C(c1ccc(C[S+]([O-])Cc2ccccc2Cl)o1)N1CCN(C2CCCCC2)CC1` (stereo unspecified), the EC50 (H4) was > 120 µM (not active), the EC50 [5] was > 120 µM (not active) and the EC50 [6] was > 120 µM (not active).

In the case of `O=C(Cn1nc(-c2ccccc2Cl)ccc1=O)Nc1ccccc1-c1ccccc1`, the EC50 (cells [1]) is reported as > 350 µM (not active), the EC50 [9] is reported as 120 µM (active) and the EC50 (cells [2]) is reported as > 350 µM (not active).
